Key:
[1] = system: Sciatic nerve chronic constriction injury; test: Sciatic nerve chronic constriction injury (CCI) in rats, tactile allodynia test; type: in vivo, rat; conditions: 100 mg/ml, 0.25 ml IP; days 10, 16, 25 and 30
From the text: (§1) Seventy seven male Sprague Dawley rats, 3 months old, approximately 200-250 g at study initiation were included in the study. Minimum and maximum weights of the group were within a range of ±20% of group mean weight. Following several days of habituation the rats underwent baseline measurements for pain behavior (tactile-allodynia) and motor sensory assessment (rotarod test). All the rats underwent Sciatic nerve chronic constriction injury (CCI); pain development was verified on the 6th day following the operation and sensory motor behavior on the 7th. On the 8th day following the procedure the rats were assigned randomly to the various treatment groups (Table 5). Pain levels were assessed on the 6th, 10th, 16th, 25th and 30th days following the procedure. Motor sensory coordination was assessed on the 11th, 21st, 26th and 34th days. […]
Pain level was evaluated using a Tactile allodynia test. In this test, the withdrawal response to calibrated Von Frey fibers is measured. […] Each fiber was applied to the paw five times and a percentage score of responses was calculated (see Flatters et al., Pain, 2004, 109:150-161). […]
(§2) Data were tabulated and analyzed using StatView software version 5.0 (SAS Institute Inc., San Francisco, Calif., USA). […] Behavioral statistics were calculated only for rats with data at all time points. […]

[2] = system: motor sensory coordination; test: Sciatic nerve chronic constriction injury (CCI) in rats, Rotarod test; type: in vivo, rat; conditions: 100 mg/ml, 0.25 ml IP
From the text: as §1, with “days. On the 35th day the rats were euthanized, the sciatic nerves (both sides) were collected and embedded in paraffin.” for “days.”
Motor sensory coordination was evaluated with the Rotarod Test. […] The rodent's ability to remain on the rotating rod is recorded (time in seconds). […]
as §2

NCC1(CC(=O)O)CCCCC1 [gabapentin]
pain (responses to 26 g stimuli) compared to day 6 [1]: significantly reduced the pain
time spent on the rotarod (motor sensory coordination) [2]: significant reduction in the time spent on the rotarod

Reference: patent US9040035B2, “Treatment of pain using placental stem cells” (ANTHROGENESIS CORPORATION, priority 2011, dated 2015)
